This note sets out measurements from patent US11510928B2, “Use of mirtazapine in the treatment of inflammatory disorders, autoimmune disease and PBC” (UTI Limited Partnership, priority 2017, dated 2022).

The subject of this assay is Con A-induced hepatitis. As to the kind of experiment: Concanavalin A (Con A) hepatitis model of immune-mediated liver injury. Particulars: for Con A-induced liver damage (plasma ALT levels): 1, 10, 20 mg/kg ip 1 hour before Con A. Format: in vivo, mouse. As for the experimental part: To determine whether mirtazapine treatment alters subsequent immune-mediated liver injury, we used the mouse model of concanavalin (Con A) hepatitis. The Con A model is a widely used and well characterized model of immune-mediated T cell-driven liver injury^16, 17. Mice were treated with mirtazapine 20 mg/kg ip and 1 hour later Con A (Sigma, St. Louis, Mo.) or PBS vehicle was injected intravenously at a dose of 13.5 mg/kg^17. Mice were sacrificed 16 hours following Con A administration and hepatitis determined biochemically (ALT) and histologically (H & E staining)^17, 18. In addition, to further characterize the effects of mirtazapine in the Con A model, we performed a mirtazapine dose response study with mirtazapine doses of 1, 10, and 20 mg/kg ip given 1 hour prior to Con A treatment.
To assess liver injury, plasma alanine aminotransferase (ALT) activity was measured (Roche-Hitachi Modular-P800 apparatus; Roche, Mannheim, Germany). Additionally, formalin-fixed liver tissue slices were stained with Hematoxylin and Eosin (H&E) for microscopic examination. Extent of liver parenchymal necrosis was quantitated as previously described, using an Olympus XC10 camera (acquired using the Olympus VS-ASW software package; original magnification ×400). Images were later processed and selected images obtained at 25 or 50% magnification (corresponding to magnifications of 100x and 200X, respectively).
Hepatic CXCL10/IP-10, CXCL9/MIG, ICAM-1 and VCAM-1 expression were determined using immunohistochemistry, as previously described. Briefly, following initial deparaffinization and rehydration of tissue sections, antigen retrieval was performed in lx Citrate buffer, PH 6.0 (Abcam) for IP-10/CXCL9 and MIG/CXCL9, or in 1X EDTA buffer pH 8.0 for ICAM1 and VCAM-1. In all cases slides were incubated in antigen retrieval buffer at 95-100° C. for 20 minutes. Endogenous peroxidase and endogenous biotin were blocked using 3% H2O2 and an avidin/biotin blocking kit (Vector Laboratories, Burlingame, Calif.) respectively, and then incubated with primary antibodies (Rabbit IgG polyclonal against MIG at 1:200; polyclonal goat IgG against IP-10/CXCL10 at 1:40; rat monoclonal against ICAM-1 clone YN1/1.7.4 at 1:200; and rabbit monoclonal against VCAM1 clone EPR5047 at 1:1000) overnight at 4° C. This was followed by incubation with biotinylated rabbit anti-goat, goat-anti rat or goat anti-rabbit secondary antibodies (at 1:150) for 1 hour at room temperature (Vector Labs). Negative staining controls were performed by omission of primary antibody, or by omission of both primary and secondary antibodies. […] This was followed by incubation with Vectastain Elite ABC kit (Vector Laboratories) for 30 min at room temperature. Color was developed with Nova Red Chromogen (ImmPACT NovaRED Peroxidase Substrate, Vector Lab, Burlingame, Calif.), after which sections were counterstained with hematoxylin (EMD Millipore). Mounted slides were converted to virtual slides with a BX61 VS virtual microscopy system equipped with an XC10 camera and VS ASW software (Olympus) (original magnification ×400). For ICAM-1, VCAM1, CXCL9/Mig, and CXCL10/IP10 expression, all scanned virtual slides of the sections were examined in a blinded fashion, and expression patterns evaluated and described.
To delineate the effect of mirtazapine treatment on hepatic cytokine/chemokine expression a Luminex® assay was used using methods as previously described. Livers were collected 5 hours after mirtazapine or vehicle treatment. A panel of mouse cytokines/chemokines were simultaneously measured in liver homogenate samples using a mouse MILLIPLEX kit (Millipore, USA) according to the manufacturer's protocol. The multiplexing analysis was performed using the Luminex 100 system (Luminex®, USA; Eve Technologies Corporation, Calgary, Canada). Total protein concentrations in liver homogenates were quantified using a BCA Protein Assay kit (Pierce, USA) according to manufacturers instructions. […]

As to `CN1CCN2c3ncccc3Cc3ccccc3C2C1` (stereo not shown) [Mirtazapine], where the note is “20 mg/kg, 16 hrs post-Con A”, the “Histological liver damage (liver cell necrosis, H&E)” value was “only a minimal hepatocyte damage”. Also, the “Con A-induced liver damage (plasma ALT levels)” value (16 hrs post-Con A) was “markedly attenuated”. For the setting “16 hrs post-Con A, listed as mirtazapine”, the “Con A-induced liver damage (plasma ALT levels)” value is “striking reduction in liver damage”. Under “Con A treated mice, 20 mg/kg”, the “Hepatic CXCL10 levels” value is reported as “significantly augmented”; the “Hepatic IL-10 levels” value is on record as “significantly higher”; the “Hepatic TNFα and IFNγ levels” value was “significantly reduced”; the “Hepatic levels of IL-6, IL-9 and LIF” value is recorded as “significantly reduced”. The “Hepatic levels of the chemokines CXCL9, CXCL2, CXCL1, CCL11 and CCL2” value (Con A treated mice, 20 mg/kg) is given as “reduced”. Further, under “IHC, 20 mg/kg”, the “Con A-induced increases in ICAM-1 expression in hepatic central veins and sinusoidal endothelium” value was “almost completely prevented”; the “Con A-induced increases in hepatic VCAM-1 expression” value is on record as “minimal effect”.
